Six molecules from patent publication US7371777B2, “Cyclic compound and PPAR agonist” (Eisai Co., Ltd., priority 2001, dated 2008) can be followed below.

The structures appear in SMILES notation. pEC50: −log10 of the molar value.

What all share (assay): Determination of transcriptional activity (GAL4-PPAR LBD chimera, PLAP reporter, CV-1 cells)
Type in all cases: cell-based

One test addresses T1, PPARβ (Homo sapiens, UniProt Q03181).
T1 construct: 138-440 (NUC-1); expressed in transfected cells; host or cells: CV-1 (ATCC CCL-70)
T1 sequence (Q03181 138-440): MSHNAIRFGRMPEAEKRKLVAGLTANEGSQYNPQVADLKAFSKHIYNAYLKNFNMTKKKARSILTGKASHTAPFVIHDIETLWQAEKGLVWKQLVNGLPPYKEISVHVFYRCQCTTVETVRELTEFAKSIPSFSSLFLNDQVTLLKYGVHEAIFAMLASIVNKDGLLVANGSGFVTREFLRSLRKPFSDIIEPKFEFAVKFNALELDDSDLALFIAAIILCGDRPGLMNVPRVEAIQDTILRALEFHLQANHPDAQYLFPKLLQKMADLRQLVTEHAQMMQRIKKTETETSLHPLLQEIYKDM
Particulars: GAL4-human NUC-1 LBD (138-440) chimera, PLAP activity 24 hours after addition of compound. The source says: (§1) Determination of Transcriptional Activity
(§2) (1) Test Method: A GAL4-PPAR LBD chimera expression vector was constructed by ligating human PPAR167-468 (PPARa), 138-440 (NUC-1) and 174-475 (PPARg) amino acid regions (LBD: Ligand Binding Domain) to a yeast transcriptional factor GAL4 1-147 amino acid region. As the reporter gene, PLAP (Placental Alkaline Phosphatase) was used, and this was ligated downstream of a TK promoter containing a 5-copy GAL4 DNA binding element to construct a vector. As host cells, CV-1 (ATCC CCL-70) were used. That is, CV-1 cells were spread at a density of 5×10^5 cells on a 35-mm dish and cultured in 10% FCS/DMEM for 24 hours, and using FuGENE 6 transfection reagent, the cells were co-transfected with the GAL4-PPAR LBD expression vector and GAL4 DBD-TK-PLAP expression vector. Twentyfour hours after this transfection, the cells were spread again on a 96-well plate at a density of 1×10^4/well and further cultured for 24 hours. After 24 hours, the medium was exchanged with DMEM containing 10% FCS, which was previously treated at 65° C. for inactivating intrinsic alkaline phosphatase, and a test compound was added at an arbitrary concentration. The transcriptional activity was determined in terms of PLAP activity secreted 24 hours after addition of the compound, to calculate EC50. The PLAP activity was determined after adding […] and incubating the mixture at room temperature for 1 hour.

The next test concerns the target T2, PPARα (Homo sapiens, UniProt Q07869).
T2 construct: human PPAR167-468 (PPARa); expressed in transfected cells; host or cells: CV-1 (ATCC CCL-70)
T2 sequence (Q07869 167-468): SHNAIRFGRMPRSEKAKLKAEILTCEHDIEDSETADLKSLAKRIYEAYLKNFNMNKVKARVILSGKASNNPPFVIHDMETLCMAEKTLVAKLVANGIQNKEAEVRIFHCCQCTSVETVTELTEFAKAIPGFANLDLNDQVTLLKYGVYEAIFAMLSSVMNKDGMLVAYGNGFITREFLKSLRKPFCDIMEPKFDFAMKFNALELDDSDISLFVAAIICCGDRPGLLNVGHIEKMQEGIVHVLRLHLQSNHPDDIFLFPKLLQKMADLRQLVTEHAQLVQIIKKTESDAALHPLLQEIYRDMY
Conditions: GAL4-human PPARα LBD (167-468) chimera, PLAP activity 24 hours after addition of compound.
Description: as §1, §2

The next test deals with T3, PPARγ (Homo sapiens, UniProt P37231).
T3 construct: 174-475 (PPARg); expressed in transfected cells; host or cells: CV-1 (ATCC CCL-70)
T3 sequence (P37231 204-505): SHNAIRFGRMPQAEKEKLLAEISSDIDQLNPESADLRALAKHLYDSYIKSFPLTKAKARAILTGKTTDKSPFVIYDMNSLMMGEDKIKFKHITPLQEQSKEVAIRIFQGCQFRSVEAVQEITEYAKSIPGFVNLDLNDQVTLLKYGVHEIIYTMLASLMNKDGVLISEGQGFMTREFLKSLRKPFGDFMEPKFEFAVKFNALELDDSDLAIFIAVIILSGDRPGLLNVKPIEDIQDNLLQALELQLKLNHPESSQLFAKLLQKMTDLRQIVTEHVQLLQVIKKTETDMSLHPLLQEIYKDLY
Conditions: GAL4-human PPARγ LBD (174-475) chimera, PLAP activity 24 hours after addition of compound.
Description: as §1, §2

By pEC50 is commonly meant the negative decadic logarithm of the EC50, by convention in mol/L. A higher pEC50 goes with a small EC50.

Regarding `CCOc1ccc(C(=O)NCc2cc(CC3(C(=O)O)CCCO3)ccc2OCC)c(Cl)c1` (stereo not drawn) [Ex. 72, 2-(3-{[(2-Chloro-4-ethoxybenzoyl)amino]methyl}-4-ethoxybenzyl)tetrahydro-2-furancarboxylic acid], the pEC50 at PPARβ was 6.63; on PPARα, 7.04; at PPARγ it was 7.40.

Take `CCCOc1ccc(C(=O)NCc2cc(CC3(C(=O)O)CCCO3)ccc2OC)c(Cl)c1` (stereo not drawn) [Ex. 1, 2-(3-{[(2-Chloro-4-propoxybenzoyl)amino]methyl}-4-methoxybenzyl)tetrahydro-2-furancarboxylic acid]: the negative-log EC50 (pEC50) is 6.27 at PPARβ, 7.55 at PPARα and 7.25 on PPARγ.

Turning to `COc1ccc(CC2(C(=O)O)CCCO2)cc1CNC(=O)c1ccc(C2CCCCC2)cc1Cl` (stereo not drawn) [Ex. 6, 2-(3-{[(2-Chloro-4-cyclohexylbenzoyl)amino]methyl}-4-methoxybenzyl)tetrahydro-2-furancarboxylic acid], the pEC50 at PPARβ is 5.92; on PPARα, 7.96; on PPARγ, 7.11.

With `CCCOc1ccc(C(=O)NCc2cc(CC3(C(=O)O)C=CCO3)ccc2OC)c(Cl)c1` (stereo not drawn) [Ex. 49, 2-(3-{[(2-Chloro-4-propoxybenzoyl)amino]methyl}-4-methoxybenzyl)-2,5-dihydro-2-furancarboxylic acid], the pEC50 on PPARβ was 6.11; on PPARα it was 7.27; on PPARγ it was 7.43.

For the molecule `CCCOc1ccc(C(=O)NCc2cc(CC3(C(=O)O)CCCO3)ccc2OCC)c(Cl)c1` (stereo not drawn) [Ex. 73, 2-(3-{[(2-Chloro-4-propoxybenzoyl)amino]methyl}-4-ethoxybenzyl)tetrahydro-2-furancarboxylic acid], the pEC50 is 7.42 on PPARβ, 7.89 at PPARα and 8.30 at PPARγ.

`COc1ccc(CC2(C(=O)O)CCCO2)cc1CNC(=O)c1ccc(OC2CCCC2)cc1Cl` (stereo not drawn) [Ex. 5, 2-(3-{[(2-Chloro-4-cyclopentyloxybenzoyl)amino]methyl}-4-methoxybenzyl)tetrahydro-2-furancarboxylic acid]: the negative logarithm of the EC50 (pEC50) on PPARβ is 5.88; on PPARα, 7.82; at PPARγ it was 7.40.
